Experimental findings from ChEMBL document CHEMBL4699440, “Comprehensive review on the anti-bacterial activity of 1,2,3-triazole hybrids” (Eur J Med Chem, 2019) are described below.

Each structure is given as a SMILES string. Values after ≈ are worked out from the molar mass of the structure shown. Numbered stars: 1 amine (or outer) side, 2 acyl side, 3 side chain; on linkers, the order of the positions; unused ones are H or OH. Square brackets hold non-standard residues; d marks the D form. Peptide text beside a SMILES is read from it. * marks the point of attachment. X1 = CC(C)(C(=O)c1ccc(C(F)(F)F)cc1)C(=O)*; βPro(3R) = O=C([C@@H]1CCN([*:1])C1)[*:2]; Phe(ol) = N[C@H](CO)Cc1ccccc1; Aib = CC(C)(N)C(=O)O

In general, MIC refers to the lowest concentration found to suppress growth.

Assay type in all cases: functional
Test [1] relates to Bacillus subtilis. Briefly: Antibacterial activity against Bacillus subtilis ATCC 6051 incubated for 24 hrs by broth microdilution method.
For test [2], the system named is Escherichia coli. In words: Antibacterial activity against Escherichia coli ATCC 25922 incubated for 24 hrs by broth microdilution method. In general terms: Dilution methods test growth across graded concentrations, often in twofold steps.
In test [3] the test system is Pseudomonas aeruginosa. In words: Antibacterial activity against Pseudomonas aeruginosa ATCC 25619 incubated for 24 hrs by broth microdilution method.
For test [4], the system named is Staphylococcus aureus. In words: Antibacterial activity against Staphylococcus aureus ATCC 12598 incubated for 24 hrs by broth microdilution method.
The next test deals with Candida albicans. Briefly: Antifungal activity against Candida albicans ATCC 2091 incubated for 24 hrs by broth microdilution method.
In a further test the test system is Aspergillus niger. In words: Antibacterial activity against Aspergillus niger ATCC 9029 incubated for 24 hrs by broth microdilution method.
The subject of test [5] is Bacillus subtilis. In words: Antibacterial activity against Bacillus subtilis assessed as inhibition zone at 1 mg/ml measured after overnight incubation by disc diffusion method. The settings on record: read-out: IZ. (In agar diffusion tests the substance spreads into inoculated agar from a disc or well.)
In test [6] the test system is Staphylococcus aureus. In words: Antibacterial activity against Staphylococcus aureus assessed as inhibition zone at 1 mg/ml measured after overnight incubation by disc diffusion method. The settings on record: read-out: IZ.
The subject of test [7] is Pseudomonas aeruginosa. In words: Antibacterial activity against Pseudomonas aeruginosa assessed as inhibition zone at 1 mg/ml measured after overnight incubation by disc diffusion method. The settings on record: read-out: IZ.
For test [8], the system named is Escherichia coli. Briefly: Antibacterial activity against Escherichia coli assessed as inhibition zone at 1 mg/ml measured after overnight incubation by disc diffusion method. The settings on record: read-out: IZ.
A further test has as its system Bacillus cereus. Briefly: Antibacterial activity against Bacillus cereus.
The test system of test [9] is Staphylococcus aureus. In words: Antibacterial activity against Staphylococcus aureus.

Regarding `Cc1ccc2c(Cn3nnc(C)c3C(=O)O)cc(=O)oc2c1`, the MIC stood at 25 µg/mL (≈ 83.5 µM) in the test on Bacillus subtilis [1]; 0.2 µg/mL (≈ 0.668 µM) with Escherichia coli [2]; 25 µg/mL (≈ 83.5 µM) in the test with Pseudomonas aeruginosa [3]; 0.2 µg/mL (≈ 0.668 µM) against Staphylococcus aureus [4]; 0.2 µg/mL (≈ 0.668 µM) in the test with Candida albicans; 0.2 µg/mL (≈ 0.668 µM) with Aspergillus niger.
For `c1ccc(-c2nnc(-c3ccccc3NCc3cn(-c4ccccc4)nn3)o2)cc1`, the zone of inhibition at 1000 µg/mL in the test with Bacillus subtilis [5], in the test on Staphylococcus aureus [6], in the test with Pseudomonas aeruginosa [7] and in the test with Escherichia coli [8] was 2.5 mm in each case.
`CC1COc2c(N3CCN(C)CC3)c(F)cc3c(=O)c(C(=O)O)cn1c23` (centres undefined) [OFLOXACIN]: the zone of inhibition at 1000 µg/mL with Bacillus subtilis [5], in the test with Staphylococcus aureus [6], in the test with Pseudomonas aeruginosa [7] and in the test with Escherichia coli [8] was 2.5 mm in each case.
Take `c1ccc(Cn2cc(CNc3ccccc3-c3nnc(-c4ccccc4)o3)nn2)cc1`: the zone of inhibition at 1000 µg/mL with Bacillus subtilis [5], with Staphylococcus aureus [6], in the test on Pseudomonas aeruginosa [7] and in the test with Escherichia coli [8] was 2.5 mm each time.
For `Fc1ccccc1-n1cc(CNc2ccccc2-c2nnc(-c3ccccc3)o2)nn1`, the zone of inhibition at 1000 µg/mL in the test with Bacillus subtilis [5], in the test on Staphylococcus aureus [6], in the test on Pseudomonas aeruginosa [7] and in the test on Escherichia coli [8] was 2.5 mm in each case.
Regarding `Cc1ccc2oc(=O)cc(Cn3nnc(N)c3C#N)c2c1`, the MIC against Bacillus subtilis [1] was 25 µg/mL (≈ 88.9 µM); against Escherichia coli [2], 0.4 µg/mL (≈ 1.42 µM); against Pseudomonas aeruginosa [3], 25 µg/mL (≈ 88.9 µM); against Staphylococcus aureus [4] it was 1.6 µg/mL (≈ 5.69 µM); in the test on Candida albicans, 0.2 µg/mL (≈ 0.711 µM); in the test with Aspergillus niger, 0.2 µg/mL (≈ 0.711 µM).
As for `Clc1cccc(-n2cc(CNc3ccccc3-c3nnc(-c4ccccc4)o3)nn2)c1`, the zone of inhibition at 1000 µg/mL in the test on Bacillus subtilis [5], with Staphylococcus aureus [6], with Pseudomonas aeruginosa [7] and with Escherichia coli [8] was 2.5 mm throughout.
In the case of `CCOC(=O)c1c(C)nnn1Cc1cc(=O)oc2ccc3c(c12)OCO3`, the MIC against Bacillus subtilis [1] is 25 µg/mL (≈ 70 µM); against Escherichia coli [2] it was 0.2 µg/mL (≈ 0.56 µM); in the test with Pseudomonas aeruginosa [3], 25 µg/mL (≈ 70 µM); against Staphylococcus aureus [4], 0.2 µg/mL (≈ 0.56 µM); with Candida albicans it was 0.2 µg/mL (≈ 0.56 µM); in the test with Aspergillus niger, 0.2 µg/mL (≈ 0.56 µM).
For the compound `CCOC(=O)c1c(C)nnn1Cc1cc(=O)oc2ccc(OC)cc12`, the MIC against Bacillus subtilis [1] came to 25 µg/mL (≈ 72.8 µM); against Escherichia coli [2], 0.2 µg/mL (≈ 0.583 µM); against Pseudomonas aeruginosa [3], 25 µg/mL (≈ 72.8 µM); in the test on Staphylococcus aureus [4], 0.2 µg/mL (≈ 0.583 µM); against Candida albicans, 0.2 µg/mL (≈ 0.583 µM); in the test with Aspergillus niger, 0.2 µg/mL (≈ 0.583 µM).
In the case of `O=[N+]([O-])c1cccc(-n2cc(CNc3ccccc3-c3nnc(-c4ccccc4)o3)nn2)c1`, the zone of inhibition at 1000 µg/mL with Bacillus subtilis [5], with Staphylococcus aureus [6], in the test with Pseudomonas aeruginosa [7] and in the test with Escherichia coli [8] was 2.5 mm throughout.
Turning to `CC(C)C[C@H](NC(=O)CNC(=O)C(C)(C)NC(=O)[C@@H](NC(=O)C(C)(C)NC(=O)[C@H](CCC(N)=O)NC(=O)[C@H](C)NC(=O)C(C)(C)NC(=O)[C@H](C)NC(=O)C(C)(C)NC(=O)[C@@H]1CCN(C(=O)C(C)(C)C(=O)c2ccc(C(F)(F)F)cc2)C1)C(C)C)C(=O)NC(C)(C)C(=O)N1CCC[C@H]1C(=O)N[C@H](C(=O)NC(C)(C)C(=O)NC(C)(C)C(=O)N[C@@H](CCC(N)=O)C(=O)N[C@@H](CCC(N)=O)C(=O)N[C@H](CO)Cc1ccccc1)C(C)C` (X1-[βPro(3R)][Aib]A[Aib]AQ[Aib]V[Aib]GL[Aib]PV[Aib][Aib]QQ[Phe(ol)]), the minimal inhibitory concentration (MIC) in the test on Bacillus cereus was determined as 12.5 µg/mL (≈ 6.01 µM); against Staphylococcus aureus [9], 1.56 µg/mL (≈ 0.751 µM).
`CCOC(=O)c1c(C)nnn1Cc1cc(=O)oc2cc(C)ccc12`: the MIC was found to be 25 µg/mL (≈ 76.4 µM) against Bacillus subtilis [1]; 0.2 µg/mL (≈ 0.611 µM) with Escherichia coli [2]; 25 µg/mL (≈ 76.4 µM) in the test with Pseudomonas aeruginosa [3]; 0.2 µg/mL (≈ 0.611 µM) in the test on Staphylococcus aureus [4]; 0.2 µg/mL (≈ 0.611 µM) against Candida albicans; 0.2 µg/mL (≈ 0.611 µM) against Aspergillus niger.
On to `CCOC(=O)c1c(C)nnn1Cc1cc(=O)oc2ccc(C)cc12`, for which the MIC with Bacillus subtilis [1] is 25 µg/mL (≈ 76.4 µM); in the test with Escherichia coli [2], 0.4 µg/mL (≈ 1.22 µM); against Pseudomonas aeruginosa [3], 25 µg/mL (≈ 76.4 µM); in the test on Staphylococcus aureus [4] it was 0.2 µg/mL (≈ 0.611 µM); in the test on Candida albicans it was 0.2 µg/mL (≈ 0.611 µM); with Aspergillus niger it was 0.2 µg/mL (≈ 0.611 µM).
For the compound `Cc1ccc2c(Cn3nnc(N)c3C#N)cc(=O)oc2c1`, the MIC against Bacillus subtilis [1] is 25 µg/mL (≈ 88.9 µM); against Escherichia coli [2], 0.2 µg/mL (≈ 0.711 µM); with Pseudomonas aeruginosa [3] it was 25 µg/mL (≈ 88.9 µM); with Staphylococcus aureus [4] it was 0.2 µg/mL (≈ 0.711 µM); against Candida albicans it was 0.2 µg/mL (≈ 0.711 µM); against Aspergillus niger it was 0.2 µg/mL (≈ 0.711 µM).
In the case of `CCOC(=O)c1c(C)nnn1Cc1cc(=O)oc2c3c(ccc12)OCO3`, the MIC in the test on Bacillus subtilis [1] came out at 25 µg/mL (≈ 70 µM); in the test with Escherichia coli [2] it was 0.2 µg/mL (≈ 0.56 µM); in the test with Pseudomonas aeruginosa [3] it was 25 µg/mL (≈ 70 µM); in the test with Staphylococcus aureus [4] it was 0.2 µg/mL (≈ 0.56 µM); with Candida albicans, 0.2 µg/mL (≈ 0.56 µM); against Aspergillus niger, 0.2 µg/mL (≈ 0.56 µM).
